Measured values taken from BindingDB's records for doi:10.1021/jm070014g (2007).

Molecular target: T1, Protein Tat (Human immunodeficiency virus type 1 group M subtype B (isolate HXB2), UniProt P04608)
T1 sequence (P04608 whole entry): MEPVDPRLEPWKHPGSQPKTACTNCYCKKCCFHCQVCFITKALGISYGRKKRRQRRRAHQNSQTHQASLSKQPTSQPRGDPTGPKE
Assay: Inhibition of Tat-mediated transcription of viral promoter in 293 T cells transfected with HIV1 tat by luciferase reporter gene assay

| Compound | EC50 |
| --- | --- |
| Cc1ccc(NCCCN)c([N+](=O)[O-])c1 | 10 µM |
| CC(Cl)c1ccc(NCCCN)c([N+](=O)[O-])c1 (configuration not stated) | 1 µM |
